In brackets after ≈: the same amount, converted by molar mass.
Legend:
[1] = test system: Pseudomonas aeruginosa ATCC 27853; assay: Antibiotic susceptibility test, broth microdilution (CLSI), MIC; type: cell-based; conditions: ATCC27853, 35° C., 18 h, read-out: Minimal inhibitory concentration (MIC)
Description: (§1) An antibiotic susceptibility test was carried out using the broth microdilution guidelines as stipulated by the Clinical and Laboratory Standards Institute (CLSI). Test organisms were grown in Mueller-Hinton (MH) or Brain Heart Infusion (BHI) broth. Solutions of compounds to be tested were each diluted in 96-well plates (50 μl per well) to various prescribed concentrations with the MH or BHI broth. Final concentrations of the solutions in each well were as follows: 128, 64, 32, 16, 8, 4, 2, 1, 0.5, 0.25, 0.125, 0.06, and 0.03 μg/ml. The culture mediums in the 96-well plates were inoculated with 5×10^5 CFU/ml of the test organisms, and then the organisms were cultured at 35° C. for 18 h.

E. coli ATCC 25922 = assay: as above; type: cell-based; conditions: Escherichia coli, ATCC25922, 35° C., 18 h, read-out: Minimal inhibitory concentration (MIC)
Description: as §1

[2] = test system: Enterobacter aerogenes ATCC 13048; assay: as above; type: cell-based; conditions: Klebsiella aerogenes, ATCC13048, 35° C., 18 h, read-out: Minimal inhibitory concentration (MIC)
Description: as §1

[3] = test system: Klebsiella pneumoniae ATCC 700603; assay: as above; type: cell-based; conditions: ATCC700603, 35° C., 18 h, read-out: Minimal inhibitory concentration (MIC)
Description: as §1

[4] = test system: Enterobacter cloacae ATCC 43560; assay: as above; type: cell-based; conditions: ATCC43560, 35° C., 18 h, read-out: Minimal inhibitory concentration (MIC)
Description: as §1

[5] = test system: NDM-1-producing Klebsiella pneumoniae 2146; assay: as above; type: cell-based; conditions: 35° C., 18 h, read-out: Minimal inhibitory concentration (MIC)
Description: as §1

ICR mice = assay: Experiments of toxicity in mice, tail vein injection; type: in vivo; conditions: for Toxicity/yes or no: ICR mice, tail vein injection; for Mortality rate / Number of deaths / Time of death: both, ICR, mouse, in vivo
Description: (§2) ICR mice of either sex weighing between 18-22 g were randomized into groups of 3 mice per group. […] The number of mice that died and the time of death were recorded. […] Tails were removed from the mice that were not dead from the injection and from the normal mice that were not given any of the compounds, and were then fixed in paraformaldehyde. Tail vessels were observed by HE staining to determine whether or not a lesion existed.

[6] = as above; type: in vivo; conditions: both sexes, ICR, mouse, in vivo
Description: as §2

Compound	MIC [1] [µg/mL]	MIC (E. coli ATCC 25922) [µg/mL]	MIC [2] [µg/mL]	MIC [3] [µg/mL]	MIC [4] [µg/mL]	MIC [5] [µg/mL]	Toxicity/yes or no (ICR mice; dose 100 mg/kg)	Toxicity/yes or no (ICR mice; dose 200 mg/kg)	Toxicity/yes or no (ICR mice; dose 300 mg/kg)	Mortality rate (ICR mice; 100 mg/kg) [%]	Number of deaths (ICR mice; 100 mg/kg)	Mortality rate (ICR mice; 200 mg/kg) [%]	Number of deaths (ICR mice; 200 mg/kg)	Time of death (ICR mice; 200 mg/kg) [min]	Mortality rate (ICR mice; 300 mg/kg) [%]	Number of deaths (ICR mice; 300 mg/kg)	Time of death (ICR mice; 300 mg/kg) [min]	MTD [6] [mg/kg]
CO[C@H]1CCC[C@@H]1C#CC#Cc1ccc(C(=O)N[C@H](C(=O)NO)C(C)(C)N)cc1 [I-1, N—((S)-3-amino-1-(hydroxyamino)-3-methyl-1-oxobutan-2-yl)-4-(((1R,2S)-2-methoxycyclopentyl)butan-1,3-diyne-1-yl)benzamide]	0.5 (≈ 1.26 µM)	0.125 (≈ 0.314 µM)	1 (≈ 2.52 µM)	2 (≈ 5.03 µM)	1 (≈ 2.52 µM)	2 (≈ 5.03 µM)	no	yes	yes	0	0	66	2	10 to 20	100	1	1	> 100
CC(C)(N)[C@H](NC(=O)N1CCN(C#CC#Cc2ccc([N+](=O)[O-])cc2)CC1)C(=O)NO [I-2, (S)—N-(3-amino-1-(hydroxyamino)-3-methyl-1-oxobutan-2-yl)-4-((4-nitrophenyl)butan-1,3-diyne-1-yl)-piperazin-1-carboxamide]	0.25 (≈ 0.584 µM)	0.125 (≈ 0.292 µM)	2 (≈ 4.67 µM)	2 (≈ 4.67 µM)	0.5 (≈ 1.17 µM)	2 (≈ 4.67 µM)	no	yes	yes	0	0	66	2	10 to 15	100	1	0.5 to 1	> 100
CC(C)(N)[C@H](NC(=O)c1ccc(C#CC#Cc2ccc(CN3CCCCC3)cc2)cc1O)C(=O)NO [I-3, (S)—N-(3-amino-1-(hydroxyamino)-3-methyl-1-oxobutan-2-yl)-2-hydroxy-4-((4-(piperidin-1-ylmethyl)phenyl)butan-1,3-diyne-1-yl)benzamide]	0.5 (≈ 1.02 µM)	0.125 (≈ 0.256 µM)	2 (≈ 4.09 µM)	4 (≈ 8.19 µM)	1 (≈ 2.05 µM)	2 (≈ 4.09 µM)	no	yes	yes	0	0	66	2	10 to 20	100	1	1	> 100
C[C@H]1COc2c(N3CCN(C)CC3)c(F)cc3c(=O)c(C(=O)O)cn1c23 [Levofloxacin, levofloxacin, reference compound]	1 (≈ 2.77 µM)	≤ 0.25	≤ 0.25	0.5 (≈ 1.38 µM)	≤ 0.25	> 64	–	–	–	–	–	–	–	–	–	–	–	–
